Our source for the IC50 values is article PMC11750102, “Inhibition of the anti-apoptotic protein BCL2 in EML4-ALK cell models as a second proposed therapeutic target for non-small cell lung cancer” (PLOS ONE, 2025).

The target of this assay is T1, Anaplastic lymphoma kinase (ALK) (Homo sapiens, UniProt Q9UM73).
T1 construct: purified recombinant GST-ALK
Put plainly: ELISA-based in vitro kinase assay with peptide substrate. Format: biochemical.

T1 sequence (Q9UM73 19-1620): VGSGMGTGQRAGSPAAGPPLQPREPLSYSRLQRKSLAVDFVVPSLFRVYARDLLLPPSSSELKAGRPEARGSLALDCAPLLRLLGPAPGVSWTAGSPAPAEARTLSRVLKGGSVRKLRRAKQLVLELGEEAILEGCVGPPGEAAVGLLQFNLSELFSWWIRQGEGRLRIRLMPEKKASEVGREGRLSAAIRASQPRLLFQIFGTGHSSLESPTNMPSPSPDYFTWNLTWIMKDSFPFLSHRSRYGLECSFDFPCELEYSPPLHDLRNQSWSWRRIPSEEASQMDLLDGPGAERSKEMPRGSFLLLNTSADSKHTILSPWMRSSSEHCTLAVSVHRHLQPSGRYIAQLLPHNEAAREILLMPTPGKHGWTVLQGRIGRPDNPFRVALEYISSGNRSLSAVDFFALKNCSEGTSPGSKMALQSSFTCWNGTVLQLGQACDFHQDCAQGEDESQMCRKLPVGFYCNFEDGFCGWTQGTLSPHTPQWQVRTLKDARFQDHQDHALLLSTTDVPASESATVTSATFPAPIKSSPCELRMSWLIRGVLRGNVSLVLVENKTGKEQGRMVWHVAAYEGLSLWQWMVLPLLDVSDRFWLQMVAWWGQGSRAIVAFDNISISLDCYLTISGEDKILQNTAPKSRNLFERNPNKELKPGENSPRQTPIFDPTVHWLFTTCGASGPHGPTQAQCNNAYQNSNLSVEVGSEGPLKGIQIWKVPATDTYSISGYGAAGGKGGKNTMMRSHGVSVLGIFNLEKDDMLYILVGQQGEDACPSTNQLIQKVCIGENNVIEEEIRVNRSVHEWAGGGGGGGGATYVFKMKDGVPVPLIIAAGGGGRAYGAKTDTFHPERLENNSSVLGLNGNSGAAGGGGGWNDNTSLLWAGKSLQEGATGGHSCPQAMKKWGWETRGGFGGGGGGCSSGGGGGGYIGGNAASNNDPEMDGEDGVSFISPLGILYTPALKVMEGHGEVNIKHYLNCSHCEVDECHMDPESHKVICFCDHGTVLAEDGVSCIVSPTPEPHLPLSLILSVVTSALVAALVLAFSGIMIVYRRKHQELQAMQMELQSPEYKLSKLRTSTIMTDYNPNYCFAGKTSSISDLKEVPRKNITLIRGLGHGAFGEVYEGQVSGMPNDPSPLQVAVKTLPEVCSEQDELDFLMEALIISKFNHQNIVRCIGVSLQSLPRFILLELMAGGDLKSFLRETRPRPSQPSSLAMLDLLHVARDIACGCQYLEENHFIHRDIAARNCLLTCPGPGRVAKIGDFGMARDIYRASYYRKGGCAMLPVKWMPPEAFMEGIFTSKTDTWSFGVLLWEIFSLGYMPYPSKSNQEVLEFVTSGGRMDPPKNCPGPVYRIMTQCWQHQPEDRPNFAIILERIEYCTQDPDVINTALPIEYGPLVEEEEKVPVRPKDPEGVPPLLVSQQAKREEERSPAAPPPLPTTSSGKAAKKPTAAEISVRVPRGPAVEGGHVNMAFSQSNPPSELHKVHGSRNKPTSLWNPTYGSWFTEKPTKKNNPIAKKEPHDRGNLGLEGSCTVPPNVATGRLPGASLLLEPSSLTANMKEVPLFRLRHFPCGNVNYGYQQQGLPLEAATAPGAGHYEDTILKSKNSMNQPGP

One may read the IC50 as the midpoint of a concentration-inhibition curve. Lower therefore signals greater potency. Compound `CC1(C)CCC(CN2CCN(c3ccc(C(=O)NS(=O)(=O)c4ccc(NCC5CCOCC5)c([N+](=O)[O-])c4)c(Oc4cnc5[nH]ccc5c4)c3)CC2)=C(c2ccc(Cl)cc2)C1` [ABT-199] gave an IC50 of 5.5 µM.
